Reference: patent publication US6489352B2, “Conformationally constrained compounds as pharmaceutical agents” (Warner-Lambert Company, priority 1998, dated 2002)
Where a name gives a salt, the structure may show the parent alone.

What was measured:
[1] = target: T1, α2δ subunit derived from porcine brain tissue (Sus scrofa, UniProt A0A287BIN3); assay: radioligand binding assay using [3H]gabapentin and the α2δ subunit; conditions: read-out: IC50 (μM) at α2δ Binding Site
T1 construct: the α2δ subunit derived from porcine brain tissue was used; from tissue; host or cells: porcine brain tissue

[2] = tested on: carrageenin-induced hyperalgesia in the rat paw; assay: Carrageenin-induced hyperalgesia, rat paw pressure test (Randall-Selitto); assay type: in vivo, rat (male Sprague-Dawley); conditions: dosed orally at 30 mg/kg
Procedure: Carrageenin-Induced Hyperalgesia
Nociceptive pressure thresholds were measured in the rat paw pressure test using an analgesimeter (Randall-Selitto method: Randall L. O. and Selitto J. J., “A method for measurement of analgesic activity on inflamed tissue,” Arch. Int. Pharmacodyn., 1957;4:409-419). Male Sprague-Dawley rats (70-90 g) were trained on this apparatus before the test day. Pressure was gradually applied to the hind paw of each rat and nociceptive thresholds were determined as the pressure (g) required to elicit paw withdrawal. A cutoff point of 250 g was used to prevent any tissue damage to the paw. On the test day, two to three baseline measurements were taken before animals were administered 100 μL of 2% carrageenin by intraplantar injection into the right hind paw.
(R)-2-Aza-spiro[4.5]decane-4-carboxylic acid hydrochloride was tested in the above carrageenan-induced hyperalgesia model. The compound was dosed orally at 30 mg/kg, and 1 hour postdose gave a percent of maximum possible effect (MPE) of 53%. At 2 hours postdose, it gave only 4.6% of MPE.

T1 sequence (A0A287BIN3 25-1109): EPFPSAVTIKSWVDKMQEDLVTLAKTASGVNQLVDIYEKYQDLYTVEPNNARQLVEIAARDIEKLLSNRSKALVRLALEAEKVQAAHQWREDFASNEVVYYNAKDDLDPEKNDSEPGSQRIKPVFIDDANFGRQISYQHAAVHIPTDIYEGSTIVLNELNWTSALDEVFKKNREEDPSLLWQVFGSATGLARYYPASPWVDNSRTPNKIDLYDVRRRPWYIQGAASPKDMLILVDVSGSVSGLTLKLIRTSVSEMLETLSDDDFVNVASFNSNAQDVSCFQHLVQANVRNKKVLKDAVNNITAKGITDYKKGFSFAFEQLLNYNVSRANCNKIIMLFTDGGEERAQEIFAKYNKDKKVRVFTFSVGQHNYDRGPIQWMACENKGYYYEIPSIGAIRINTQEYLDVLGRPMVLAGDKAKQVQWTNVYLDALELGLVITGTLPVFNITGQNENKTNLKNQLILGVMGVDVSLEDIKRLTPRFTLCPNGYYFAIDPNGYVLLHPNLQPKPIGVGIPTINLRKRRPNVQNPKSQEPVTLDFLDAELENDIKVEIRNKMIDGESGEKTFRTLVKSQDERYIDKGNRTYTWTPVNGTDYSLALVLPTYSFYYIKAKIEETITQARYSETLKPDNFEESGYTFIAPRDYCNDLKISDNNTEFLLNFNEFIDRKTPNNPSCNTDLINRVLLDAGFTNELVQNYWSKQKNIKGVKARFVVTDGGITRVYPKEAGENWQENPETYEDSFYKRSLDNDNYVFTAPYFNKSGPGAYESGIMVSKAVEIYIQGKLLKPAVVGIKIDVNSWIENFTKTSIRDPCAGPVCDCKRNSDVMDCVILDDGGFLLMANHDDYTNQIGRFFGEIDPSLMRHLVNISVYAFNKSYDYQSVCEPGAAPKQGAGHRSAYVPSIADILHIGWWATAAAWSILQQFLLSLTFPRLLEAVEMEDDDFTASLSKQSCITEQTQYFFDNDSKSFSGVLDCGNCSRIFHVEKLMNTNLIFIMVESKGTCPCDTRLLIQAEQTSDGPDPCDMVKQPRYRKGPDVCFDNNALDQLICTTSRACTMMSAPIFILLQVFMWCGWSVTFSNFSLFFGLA

**Q.** For `O=C(O)C1CNCC12C1CCCC2CCC1` (stereo not drawn) [Spiro[bicyclo[3.3.1]nonane-9,3′-pyrrolidine]-4′-carboxylic acid], which IC50 [1] is on record?
**A.** 0.57 µM

**Q.** Which results are given for `Cl.O=C(O)[C@H]1CNCC12CCCCC2` [(R)-2-Aza-spiro[4.5]decane-4-carboxylic acid hydrochloride]?
**A.** IC50 [1]: 0.16 µM; percent of maximum possible effect (MPE) ([2]; 1 hour postdose): 53%; percent of maximum possible effect (MPE) ([2]; 2 hours postdose): 4.6%

**Q.** With `O=C(O)C1CNCC12C1CC3CC(C1)CC2C3` (stereo not drawn) [Spiro[pyrrolidine-3,2′-tricyclo[3.3.1.1^3,7]decane]-4-carboxylic acid] as the molecule, how does the IC50 [1] read?
**A.** 0.42 µM

**Q.** With `Cl.O=C(O)C1NCC12CCCCC2` (racemic) [(±)-2-Aza-spiro[3.5]nonane-1-carboxylic acid hydrochloride] as the molecule, how does the IC50 [1] read?
**A.** 1.5 µM

**Q.** And the melting point?
**A.** 163 to 165 °C

**Q.** Which IC50 [1] does the source give for `O=C(O)C1CNCC12CCCCC2` (racemic) [(±)-2-Aza-spiro[4.5]decane-4-carboxylic acid hydrochloride] here?
**A.** 0.35 µM

**Q.** Which IC50 [1] does the source give for `O=C(O)[C@@H]1CNCC12CCCCC2` [(S)-2-Aza-spiro[4.5]decane-4-carboxylic acid hydrochloride] here?
**A.** > 10 µM
